From patent US12331044B2, “Inhibitors of histone deacetylase useful for the treatment or prevention of HIV infection” (Merck Sharp & Dohme LLC, priority 2018, dated 2025)
Where two headings read alike, the source gives them in different places.

Experiments:
[1] = target: HDAC6 (Homo sapiens (Human), UniProt Q9UBN7)
Method: The histone deacetylase activities of HDAC1, HDAC2, HDAC3, HDAC6, and HDAC8 were measured in modified FLUOR DE LYS assays in 384-well format. In this assay, HDAC enzymes are initially incubated with an F-acetyl (or -trifluoroacetyl)-L-lysine-containing substrate with a C-terminal amide having aminomethylcoumarin as the amine component. HDACs cleave the F-acetyl group, rendering the resulting product susceptible to AMC cleavage by trypsin. The released AMC is then detected by its fluorescence. […] All steps were performed at room temperature (23° C.). The assay was performed by pre-incubating serial dilutions of test compounds with the target HDAC prior to initiation with substrate. […] Final conditions used for each assay were: 1. […] The reactions were stopped and developed by addition of 30 ul of HDAC developer solution containing a saturating level of HDAC inhibitor as follows: 1. […] For data analysis, background subtracted product (fluorescence) vs. time data for each inhibitor concentration was fitted using a 4-parameter fit.

[2] = test system: KARN cells (Jurkat 2C4); assay: cells; details: Homo sapiens
Method: KARN Assay Cell Maintenance
KARN cells (Jurkat 2C4) were licensed from the laboratory of Dr. John Karn, Case Western Reserve University, School of Medicine. […] An atmosphere of 5% CO2 and 90% humidity was used for all culture work.
These flasks were returned to the incubator.
The cells were gently resuspended in assay media (30 ml) and pelleted again. […] The cells were counted using the ViCell (Beckman Coulter) and diluted as necessary. […] The plates were covered and returned to the incubator prior to compound addition.
The reference compounds, DMSO and SAHA were then added to the compound plate. […] The final high concentration for SAHA and the test compounds in the assays was 40 μM. The final DMSO concentration in all wells was 0.4%. The minimal induction reference compound used was DMSO and the maximal induction reference compound used was SAHA (2 μM final concentration in the assay).
Day 3: The luciferase detection reagent was prepared by transferring the contents of one bottle of Steady-Glo buffer to one bottle of Steady-Glo aubstrate (Steady-Glo Luciferase Assay System, Promega, catalog number E2520), followed by gently mixing until the substrate was thoroughly dissolved and the solution was equilibrated to room temperature. […] The Steady-Glo Reagent was added to the plates (30 μl/well), which were then covered with a black lid and incubated for 10 minutes at room temperature. The plates were then read for luminescence on an Envision (Perkin Elmer) using the ultrasensitive mode (US LUM), 0.1 counts per second and 384-well aperture. Luminescence counts in the DMSO reference wells were considered as 0% induction, while those in the 2 μM SAHA reference wells were considered as 100% induction. Dose response curves were plotted as test compound concentration (X-axis) vs. percent activation (Y-axis) using a 4-parameter fit based on the Levenberg-Marquardt algorithm.

[3] = read-out: Karn EC50 nM 0.1% NHS, 0.1% normal human serum, luciferase induction, 2 μM SAHA = 100%
[4] = read-out: Karn EC50 nM 5% NHS, 5% normal human serum, luciferase induction, 2 μM SAHA = 100%

Sequence of HDAC6 (Q9UBN7 whole entry): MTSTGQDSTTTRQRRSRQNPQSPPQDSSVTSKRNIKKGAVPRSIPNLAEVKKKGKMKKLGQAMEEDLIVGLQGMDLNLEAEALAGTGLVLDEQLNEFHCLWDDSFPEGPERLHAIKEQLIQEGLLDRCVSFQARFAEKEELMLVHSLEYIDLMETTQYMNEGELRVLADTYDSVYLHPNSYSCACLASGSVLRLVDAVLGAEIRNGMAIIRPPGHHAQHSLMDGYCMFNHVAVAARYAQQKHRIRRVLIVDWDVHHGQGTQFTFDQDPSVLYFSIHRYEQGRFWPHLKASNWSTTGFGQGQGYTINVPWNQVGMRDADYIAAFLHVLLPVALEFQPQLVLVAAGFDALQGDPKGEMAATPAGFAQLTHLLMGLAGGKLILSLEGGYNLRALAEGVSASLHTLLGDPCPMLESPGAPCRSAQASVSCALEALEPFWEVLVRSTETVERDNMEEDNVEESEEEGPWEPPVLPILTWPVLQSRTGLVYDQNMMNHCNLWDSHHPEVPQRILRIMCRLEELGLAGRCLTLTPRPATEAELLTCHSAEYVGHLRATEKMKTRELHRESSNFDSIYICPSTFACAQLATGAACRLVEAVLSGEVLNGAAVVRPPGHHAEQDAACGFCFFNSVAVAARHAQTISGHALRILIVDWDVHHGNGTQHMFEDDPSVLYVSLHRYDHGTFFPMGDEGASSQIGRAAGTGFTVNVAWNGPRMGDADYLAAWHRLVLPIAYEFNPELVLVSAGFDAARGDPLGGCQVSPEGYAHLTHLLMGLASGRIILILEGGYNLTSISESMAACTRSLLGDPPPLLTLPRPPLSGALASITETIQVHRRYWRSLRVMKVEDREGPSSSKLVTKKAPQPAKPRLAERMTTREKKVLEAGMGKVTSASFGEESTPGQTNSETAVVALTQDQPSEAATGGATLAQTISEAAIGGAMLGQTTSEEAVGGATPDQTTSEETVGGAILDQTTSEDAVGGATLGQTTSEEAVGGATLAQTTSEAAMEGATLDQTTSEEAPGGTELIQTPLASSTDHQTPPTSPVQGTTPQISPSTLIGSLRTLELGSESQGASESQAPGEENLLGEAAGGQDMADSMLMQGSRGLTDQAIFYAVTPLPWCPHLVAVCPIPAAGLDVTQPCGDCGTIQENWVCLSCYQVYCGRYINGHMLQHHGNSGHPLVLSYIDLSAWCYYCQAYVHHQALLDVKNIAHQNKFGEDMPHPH

SMILES	IC50 [1]	EC50 [2, 3]	EC50 [2, 4]
COc1ncccc1-c1cnc([C@H](CCCCCC(=O)c2ncco2)NC(=O)C2CN(C)C2)o1 (stereo in doubt) [Example 104, N-(1-(5-(2-methoxypyridin-3-yl)oxazol-2-yl)-7-(oxazol-2-yl)-7-oxoheptyl)-1-methylazetidine-3-carboxamide]	> 900 nM	40 nM	44 nM
O=C(CCCCC[C@H](NC(=O)c1cncs1)c1nc(-c2ccc(F)cc2)c[nH]1)c1ncco1 [Example 2, (S)-N-(1-(4-(4-fluorophenyl)-1H-imidazol-2-yl)-7-(oxazol-2-yl)-7-oxoheptyl)thiazole-5-carboxamide]	45000 nM	44 nM	97 nM
CN1CCC(C(=O)N[C@@H](CCCCCC(=O)c2ncco2)c2nc(-c3ccc(F)cc3)c[nH]2)CC1 [Example 3, (S)-N-(1-(4-(4-fluorophenyl)-1H-imidazol-2-yl)-7-(oxazol-2-yl)-7-oxoheptyl)-1-methylpiperidine-4-carboxamide]	45000 nM	18 nM	26 nM
O=C(CCCCC[C@H](NC(=O)[C@H]1CC12CCOCC2)c1nc(-c2ccc(F)cc2)c[nH]1)c1ncco1 [Example 5, N-((S)-1-(4-(4-fluorophenyl)-1H-imidazol-2-yl)-7-(oxazol-2-yl)-7-oxoheptyl)-6-oxaspiro[2.5]octane-1-carboxamide]	45000 nM	63 nM	130 nM
O=C(N[C@@H](CCCCCC(=O)c1nccs1)c1nc(-c2ccc(F)cc2)c[nH]1)c1cncs1 [Example 7, (S)-N-(1-(4-(4-fluorophenyl)-1H-imidazol-2-yl)-7-oxo-7-(thiazol-2-yl)heptyl)thiazole-5-carboxamide]	45000 nM	23 nM	8400 nM
Cc1coc(C(=O)CCCCC[C@H](NC(=O)C2CCN(C)CC2)c2nc(-c3ccc(F)cc3)c[nH]2)n1 [Example 8, (S)-N-(1-(4-(4-fluorophenyl)-1H-imidazol-2-yl)-7-(4-methyloxazol-2-yl)-7-oxoheptyl)-1-methylpiperidine-4-carboxamide]	15000 nM	–	–
COc1nc(C)ccc1-c1c[nH]c([C@@H](N)CCCCCC(=O)c2ncco2)n1 [Example 11]	45000 nM	620 nM	670 nM
COc1cc2nc(C)ccc2cc1-c1c[nH]c([C@@H](N)CCCCCC(=O)c2ncco2)n1 [Example 12, (S)-7-amino-7-(5-(7-methoxy-2-methylquinolin-6-yl)-1H-imidazol-2-yl)-1-(oxazol-2-yl)heptan-1-one]	8300 nM	66 nM	80 nM
COc1nc2cnccc2cc1-c1c[nH]c([C@@H](N)CCCCCC(=O)c2ncco2)n1 [Example 13]	45000 nM	94 nM	140 nM
CN(C)c1ccc2cc(-c3cnc([C@@H](N)CCCCCC(=O)c4ncco4)[nH]3)ccc2n1 [Example 18]	> 1500 nM	93 nM	130 nM
N[C@@H](CCCCCC(=O)c1ncco1)c1ncc(-c2ccc(-c3cnccn3)cc2)[nH]1 [Example 20]	45000 nM	450 nM	340 nM
Cn1c(=O)ccc2cc(-c3c[nH]c([C@@H](N)CCCCCC(=O)c4ccon4)n3)ccc21 [Example 32, (S)-6-(2-(1-amino-7-(isoxazol-3-yl)-7-oxoheptyl)-1H-imidazol-4-yl)-1-methylquinolin-2(1H)-one]	15000 nM	26 nM	35 nM
COc1cc2c(ccc(=O)n2C)cc1-c1cnc([C@@H](N)CCCCCC(=O)c2ccon2)[nH]1 [Example 35, (S)-6-(2-(1-amino-7-(isoxazol-3-yl)-7-oxoheptyl)-1H-imidazol-5-yl)-7-methoxy-1-methylquinolin-2(1H)-one]	15000 nM	72 nM	50 nM
Cc1ccc2cc(-c3c[nH]c([C@H](CCCCCC(=O)c4ccon4)NC(=O)C4CN(C)C4)n3)ccc2n1 [Example 43]	1800 nM	8.5 nM	14 nM
CN(C)CC(=O)N[C@@H](CCCCCC(=O)c1ccon1)c1nc(-c2ccccc2F)c[nH]1 [Example 47]	9100 nM	3.7 nM	10 nM
Cc1cc(C(=O)CCCCC[C@H](NC(=O)C2CN(C)C2)c2nc(-c3ccccc3F)c[nH]2)no1 [Example 59]	45000 nM	–	–
CC(C(=O)N[C@@H](CCCCCC(=O)c1ccon1)c1ncc(-c2ccccc2F)[nH]1)N(C)C (some centres unmarked) [Example 61]	> 900 nM	3.6 nM	5.8 nM

SMILES	IC50 [1]	EC50 [2, 3]	EC50 [2, 4]
CN(C)C1(C(=O)N[C@@H](CCCCCC(=O)c2ccon2)c2ncc(-c3ccccc3F)[nH]2)CC1 [Example 62]	> 900 nM	50 nM	100 nM
CN(C)CC(=O)N[C@@H](CCCCCC(=O)c1ncco1)c1[nH]c(-c2ccc(F)cc2)nc1Cl [Example 90]	26000 nM	14 nM	34 nM
N[C@@H](CCCCCC(=O)c1ccon1)c1ccn(-c2ccc(F)cc2)n1 [Example 120, (7S)-7-amino-7-[1-(4-fluorophenyl)-1H-pyrazol-3-yl]-1-isoxazol-3-ylheptan-1-one]	45000 nM	–	–
NC(CCCCCC(=O)c1ccon1)c1cnn(-c2ccc(F)cc2)n1 (centres unmarked) [Example 123, 7-amino-7-[2-(4-fluorophenyl)-2H-1,2,3-triazol-4-yl]-1-isoxazol-3-ylheptan-1-one]	45000 nM	–	–
Cn1cc2cc(-c3cc([C@@H](N)CCCCCC(=O)c4ccon4)no3)ccc2n1 [Example 126, (7S)-7-amino-1-isoxazol-3-yl-7-[5-(2-methyl-2H-indazol-5-yl)isoxazol-3-yl]heptan-1-one]	> 900 nM	170 nM	250 nM
N[C@@H](CCCCCC(=O)c1ncco1)c1ncc(-c2cc(OC3CCC3)ccc2F)[nH]1 [Example 130, (7S)-7-amino-7-{5-[5-(cyclobutyloxy)-2-fluorophenyl]-1H-imidazol-2-yl}-1-(1,3-oxazol-2-yl)heptan-1-one]	> 900 nM	1600 nM	4600 nM
N#Cc1cnc(-c2cnc([C@@H](N)CCCCCC(=O)c3ncco3)[nH]2)cn1 [Example 132, 5-{2-[(1S)-1-amino-7-(1,3-oxazol-2-yl)-7-oxoheptyl]-1H-imidazol-5-yl}pyrazine-2-carbonitrile]	–	25000 nM	30000 nM
N#Cc1cncc(-c2cnc([C@@H](N)CCCCCC(=O)c3ncco3)[nH]2)n1 [Example 133, 6-{2-[(1S)-1-amino-7-(1,3-oxazol-2-yl)-7-oxoheptyl]-1H-imidazol-5-yl}pyrazine-2-carbonitrile]	–	23000 nM	25000 nM
N[C@@H](CCCCCC(=O)c1ncco1)c1ncc(-c2cc(OC(F)(F)F)ccc2F)[nH]1 [Example 142, (7S)-7-amino-7-{5-[2-fluoro-5-(trifluoromethoxy)phenyl]-1H-imidazol-2-yl}-1-(1,3-oxazol-2-yl)heptan-1-one]	> 900 nM	1200 nM	270 nM
COCC(=O)N[C@@H](CCCCCC(=O)c1ncco1)c1ncc(-c2cc3ccccc3nc2OC)[nH]1 [Example 147, 2-methoxy-N-[(1S)-1-[5-(2-methoxyquinolin-3-yl)-1H-imidazol-2-yl]-7-(1,3-oxazol-2-yl)-7-oxoheptyl]acetamide]	15000 nM	50 nM	490 nM
COc1nc2ccccc2cc1-c1cnc([C@H](CCCCCC(=O)c2ncco2)NC(=O)C(C)(F)F)[nH]1 [Example 148, 2,2-difluoro-N-[(1S)-1-[5-(2-methoxyquinolin-3-yl)-1H-imidazol-2-yl]-7-(1,3-oxazol-2-yl)-7-oxoheptyl]propanamide]	3400 nM	54 nM	450 nM
CCN1CCC2(CC1)C[C@@H]2C(=O)N[C@@H](CCCCCC(=O)c1ccon1)c1cc(-c2ccccc2F)on1 [Example 175, (1S)-6-ethyl-N-{(1S)-1-[5-(2-fluorophenyl)isoxazol-3-yl]-7-isoxazol-3-yl-7-oxoheptyl}-6-azaspiro[2.5]octane-1-carboxamide]	–	13 nM	19 nM
CCN1CCC2(CC1)C[C@@H]2C(=O)N[C@@H](CCCCCC(=O)c1ccon1)c1cc(-c2ccc3nn(C)cc3c2)on1 [Example 176, (1S)-6-ethyl-N-{(1S)-7-isoxazol-3-yl-1-[5-(2-methyl-2H-indazol-5-yl)isoxazol-3-yl]-7-oxoheptyl}-6-azaspiro[2.5]octane-1-carboxamide]	–	14 nM	13 nM
CN1CCC2(CC1)CC(C(=O)N[C@@H](CCCCCC(=O)c1ccon1)c1cc(-c3ccc4nn(C)cc4c3)on1)=NO2 [Example 177, N-{(1S)-7-isoxazol-3-yl-1-[5-(2-methyl-2H-indazol-5-yl)isoxazol-3-yl]-7-oxoheptyl}-8-methyl-1-oxa-2,8-diazaspiro[4.5]dec-2-ene-3-carboxamide]	–	33 nM	55 nM
CN1CC(C(=O)N[C@@](C)(CCCCCC(=O)c2ccon2)c2ncc(-c3ccccc3F)[nH]2)C1 [Example 184, (S)-N-(2-(5-(2-fluorophenyl)-1H-imidazol-2-yl)-8-(isoxazol-3-yl)-8-oxooctan-2-yl)-1-methylazetidine-3-carboxamide]	> 900 nM	56 nM	57 nM
CN1CC(C(=O)N[C@@H](CCCCCC(=O)c2ccon2)c2nc(Cl)c(-c3ccc(F)cc3)[nH]2)C1 [Example 196, (S)-N-(1-(4-chloro-5-(4-fluorophenyl)-1H-imidazol-2-yl)-7-(isoxazol-3-yl)-7-oxoheptyl)-1-methylazetidine-3-carboxamide 2,3-dihydroxysuccinate]	4600 nM	3.8 nM	7.5 nM
